The source made the active and inactive calls.
How the values were obtained:
[1] = target: T1, Type-1 angiotensin II receptor (Homo sapiens, UniProt P30556); test: antagonism of angiotensin II type 1 receptor – cell-based, uHTS hits, selectivity assay for APJ receptor antagonist project, dose response (AID 463214); format: functional;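 also: antagonist potency against angiotensin II stimulated AT1 response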
T1 sequence (P30556 whole entry): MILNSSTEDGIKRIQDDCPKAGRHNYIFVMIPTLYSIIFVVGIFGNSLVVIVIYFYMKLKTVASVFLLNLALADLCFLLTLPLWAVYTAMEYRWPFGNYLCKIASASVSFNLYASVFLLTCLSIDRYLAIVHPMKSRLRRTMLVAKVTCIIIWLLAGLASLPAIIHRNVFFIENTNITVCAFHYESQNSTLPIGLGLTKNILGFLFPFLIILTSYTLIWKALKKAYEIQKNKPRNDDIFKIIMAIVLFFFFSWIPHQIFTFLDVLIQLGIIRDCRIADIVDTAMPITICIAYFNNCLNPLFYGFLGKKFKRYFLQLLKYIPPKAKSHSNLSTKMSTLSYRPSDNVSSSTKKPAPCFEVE

[2] = target: Glucose-6-phosphate 1-dehydrogenase (Homo sapiens, UniProt P11413); test: inhibition of Homo sapiens G6PD, dose series – biochemical, fluorescence, selectivity assay for P. falciparum G6PD inhibitor project, dose response (AID 504792); format: functional
Sequence of Glucose-6-phosphate 1-dehydrogenase (P11413 whole entry): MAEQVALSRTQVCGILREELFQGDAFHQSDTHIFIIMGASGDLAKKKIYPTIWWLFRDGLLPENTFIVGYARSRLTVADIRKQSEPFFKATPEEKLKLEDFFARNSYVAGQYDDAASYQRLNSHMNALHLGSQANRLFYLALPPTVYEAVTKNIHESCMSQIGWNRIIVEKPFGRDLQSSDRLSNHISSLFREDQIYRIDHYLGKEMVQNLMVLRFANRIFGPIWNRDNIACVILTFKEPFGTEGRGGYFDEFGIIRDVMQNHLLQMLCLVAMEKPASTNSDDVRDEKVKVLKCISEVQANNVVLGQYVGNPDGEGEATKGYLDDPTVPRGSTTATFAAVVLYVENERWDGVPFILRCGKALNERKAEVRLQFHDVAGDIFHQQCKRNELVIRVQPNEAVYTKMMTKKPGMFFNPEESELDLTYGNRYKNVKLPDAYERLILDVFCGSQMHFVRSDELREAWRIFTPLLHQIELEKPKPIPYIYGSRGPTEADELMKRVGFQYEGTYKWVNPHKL

[3] = loss of viability in HepG2 cells – cell-based, CellTiter-Glo, cherry-picked, cytotoxicity control for Shn3 inhibitor project, dose response (AID 624134); format: functional
[4] = non-specific 3'UTR reporter inhibition in Clone20-Shn3RL – cell-based, Renilla luciferase, cherry-picked, counter-screen for Shn3 inhibitor project, dose response (AID 624133); format: functional
[5] = reduction of Shn3 3'UTR-driven luciferase in osteoblasts – cell-based, Clone20 osteoblasts, firefly luciferase, cherry-picked, dose response (AID 624132); format: functional;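 also: firefly luciferase luminescence from reporter carrying the Shn3 3'UTR in osteoblasts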
[6] = target: T2, Endoribonuclease toxin MazF (Escherichia coli K-12, UniProt P0AE70); test: activation of MazEF endoribonuclease cleavage – biochemical, fluorescence, single-stranded RNA substrate, uHTS hits, dose response (AID 588481); format: functional
T2 sequence (P0AE70 whole entry): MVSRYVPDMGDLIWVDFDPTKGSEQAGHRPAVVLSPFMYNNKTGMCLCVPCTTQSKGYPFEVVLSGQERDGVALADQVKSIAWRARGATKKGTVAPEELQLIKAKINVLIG

[7] = system: Streptococcus sp. 'group A'; test: Streptococcus pyogenes SK(-)GAS viability under kanamycin – luminescence, BacTiterGlo, confirmation, counter-screen for streptokinase expression inhibitor project, dose response (AID 1900); format: functional, organism-based
[8] = target: T2, Endoribonuclease toxin MazF; test: substrate-only fluorescence increase artefacts – biochemical, single-stranded RNase substrate, counter-screen for MazEF activator project, dose response (AID 588502); format: functional
Beta-galactosidase = Beta-galactosidase (Escherichia coli, UniProt Q8VNN2); test: PubChem AID 485352; format: functional
Sequence of Beta-galactosidase (Q8VNN2 whole entry): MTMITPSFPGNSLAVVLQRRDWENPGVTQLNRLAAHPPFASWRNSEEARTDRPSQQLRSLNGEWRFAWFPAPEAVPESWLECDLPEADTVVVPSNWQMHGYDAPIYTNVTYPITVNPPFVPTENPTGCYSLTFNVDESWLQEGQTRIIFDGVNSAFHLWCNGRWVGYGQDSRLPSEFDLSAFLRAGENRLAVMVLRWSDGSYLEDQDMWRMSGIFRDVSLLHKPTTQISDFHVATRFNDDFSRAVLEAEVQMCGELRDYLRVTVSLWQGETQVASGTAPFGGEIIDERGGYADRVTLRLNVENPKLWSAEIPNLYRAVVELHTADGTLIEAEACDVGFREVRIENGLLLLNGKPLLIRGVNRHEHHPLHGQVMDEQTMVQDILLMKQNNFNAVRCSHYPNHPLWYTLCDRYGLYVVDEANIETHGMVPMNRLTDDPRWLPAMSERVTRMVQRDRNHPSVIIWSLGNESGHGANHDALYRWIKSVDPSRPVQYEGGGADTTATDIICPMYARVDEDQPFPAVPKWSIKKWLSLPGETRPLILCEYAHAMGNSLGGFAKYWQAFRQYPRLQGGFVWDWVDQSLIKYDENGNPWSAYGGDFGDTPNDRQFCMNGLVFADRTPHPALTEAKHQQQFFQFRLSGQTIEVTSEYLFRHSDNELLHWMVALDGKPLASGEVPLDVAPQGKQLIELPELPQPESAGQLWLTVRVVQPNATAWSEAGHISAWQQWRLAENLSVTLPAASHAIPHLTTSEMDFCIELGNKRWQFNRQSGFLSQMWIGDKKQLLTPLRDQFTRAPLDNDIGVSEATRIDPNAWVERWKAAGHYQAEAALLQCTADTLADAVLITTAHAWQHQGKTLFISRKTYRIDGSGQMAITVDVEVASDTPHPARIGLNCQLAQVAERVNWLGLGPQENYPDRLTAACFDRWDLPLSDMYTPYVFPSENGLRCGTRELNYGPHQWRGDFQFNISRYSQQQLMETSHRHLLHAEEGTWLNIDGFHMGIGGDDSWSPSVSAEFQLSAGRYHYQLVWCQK

Fatty acid synthase [9] = target: T3, Fatty acid synthase (Homo sapiens, UniProt P49327); test: inhibition of human FAS-TE enzyme activity – biochemical, endpoint fluorescence intensity, uHTS hits, dose response (AID 624327); format: functional;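 also: fluorescence from hydrolysis of an O-methyl fluorescein acyl ester substrate by the enzyme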
T3 sequence (P49327 whole entry): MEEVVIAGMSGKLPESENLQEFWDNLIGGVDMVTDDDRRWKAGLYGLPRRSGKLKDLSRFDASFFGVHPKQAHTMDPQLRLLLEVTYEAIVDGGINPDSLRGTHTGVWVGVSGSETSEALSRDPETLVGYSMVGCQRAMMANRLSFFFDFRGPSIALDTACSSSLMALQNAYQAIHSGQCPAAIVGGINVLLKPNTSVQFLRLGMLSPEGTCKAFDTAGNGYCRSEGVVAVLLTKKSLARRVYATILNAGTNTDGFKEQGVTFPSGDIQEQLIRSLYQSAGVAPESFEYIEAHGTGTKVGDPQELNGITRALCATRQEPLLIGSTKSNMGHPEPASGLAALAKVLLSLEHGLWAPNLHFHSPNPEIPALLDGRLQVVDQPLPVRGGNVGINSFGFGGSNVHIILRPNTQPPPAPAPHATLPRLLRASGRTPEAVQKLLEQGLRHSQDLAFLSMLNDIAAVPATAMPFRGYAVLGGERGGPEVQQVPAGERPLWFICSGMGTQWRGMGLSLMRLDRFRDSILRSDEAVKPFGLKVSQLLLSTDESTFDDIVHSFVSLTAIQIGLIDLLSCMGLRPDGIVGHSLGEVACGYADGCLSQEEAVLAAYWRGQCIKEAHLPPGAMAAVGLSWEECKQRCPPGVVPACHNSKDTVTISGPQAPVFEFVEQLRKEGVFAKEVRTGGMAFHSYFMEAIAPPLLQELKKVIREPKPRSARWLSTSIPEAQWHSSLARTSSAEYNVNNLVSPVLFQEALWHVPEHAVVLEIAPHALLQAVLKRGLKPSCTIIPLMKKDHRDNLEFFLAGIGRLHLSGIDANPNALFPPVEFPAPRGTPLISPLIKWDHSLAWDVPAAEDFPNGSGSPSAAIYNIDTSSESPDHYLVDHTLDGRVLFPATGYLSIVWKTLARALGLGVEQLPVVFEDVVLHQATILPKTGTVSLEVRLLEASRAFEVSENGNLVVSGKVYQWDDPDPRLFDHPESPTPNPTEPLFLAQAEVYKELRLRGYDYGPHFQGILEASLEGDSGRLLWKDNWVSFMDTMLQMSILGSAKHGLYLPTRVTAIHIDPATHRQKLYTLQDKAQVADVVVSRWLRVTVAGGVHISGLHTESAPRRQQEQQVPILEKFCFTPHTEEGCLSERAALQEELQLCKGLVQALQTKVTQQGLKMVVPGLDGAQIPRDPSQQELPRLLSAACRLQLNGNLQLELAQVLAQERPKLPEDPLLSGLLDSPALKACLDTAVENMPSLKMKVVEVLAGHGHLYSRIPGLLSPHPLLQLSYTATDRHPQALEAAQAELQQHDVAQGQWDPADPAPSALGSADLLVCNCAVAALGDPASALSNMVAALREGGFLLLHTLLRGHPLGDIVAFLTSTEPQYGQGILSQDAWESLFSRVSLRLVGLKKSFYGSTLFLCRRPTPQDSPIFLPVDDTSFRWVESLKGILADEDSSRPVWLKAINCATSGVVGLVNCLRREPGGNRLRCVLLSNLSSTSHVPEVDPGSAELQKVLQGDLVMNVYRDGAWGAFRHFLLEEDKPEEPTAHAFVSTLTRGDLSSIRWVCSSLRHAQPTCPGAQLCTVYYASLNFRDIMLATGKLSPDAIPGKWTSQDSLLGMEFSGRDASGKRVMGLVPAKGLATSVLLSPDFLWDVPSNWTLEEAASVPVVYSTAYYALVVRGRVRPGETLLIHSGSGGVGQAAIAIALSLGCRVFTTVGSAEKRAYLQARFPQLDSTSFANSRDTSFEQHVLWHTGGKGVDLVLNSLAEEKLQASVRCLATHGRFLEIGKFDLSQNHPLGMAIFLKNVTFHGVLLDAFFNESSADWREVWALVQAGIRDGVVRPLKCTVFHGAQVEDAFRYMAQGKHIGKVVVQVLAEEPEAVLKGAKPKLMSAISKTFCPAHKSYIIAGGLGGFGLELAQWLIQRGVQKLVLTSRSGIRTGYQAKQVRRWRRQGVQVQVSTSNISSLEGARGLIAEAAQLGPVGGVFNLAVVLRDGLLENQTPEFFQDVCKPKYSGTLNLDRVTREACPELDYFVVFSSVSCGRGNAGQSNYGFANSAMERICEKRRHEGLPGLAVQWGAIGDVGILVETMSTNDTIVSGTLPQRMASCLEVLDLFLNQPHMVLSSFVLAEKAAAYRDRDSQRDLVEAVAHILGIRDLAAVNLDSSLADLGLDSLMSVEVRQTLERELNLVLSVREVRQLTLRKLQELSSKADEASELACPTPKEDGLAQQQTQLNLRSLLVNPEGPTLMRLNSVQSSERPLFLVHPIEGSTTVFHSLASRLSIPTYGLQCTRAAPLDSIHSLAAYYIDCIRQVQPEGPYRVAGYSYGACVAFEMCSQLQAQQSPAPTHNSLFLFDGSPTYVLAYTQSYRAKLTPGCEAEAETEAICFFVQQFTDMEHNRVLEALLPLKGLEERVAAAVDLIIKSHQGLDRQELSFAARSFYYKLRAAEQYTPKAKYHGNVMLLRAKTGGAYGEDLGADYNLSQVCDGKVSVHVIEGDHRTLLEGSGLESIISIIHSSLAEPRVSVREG

Streptokinase A = target: T4, Streptokinase A (Streptococcus pyogenes serotype M1, UniProt P10520); test: viability-normalized secreted streptokinase activity reduction – plasminogen activation absorbance, OD405, dose response (AID 1914); format: functional, Streptococcus pyogenes M1 GAS;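 also: secreted streptokinase activity via plasminogen activation per viability signal from cell pellet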
T4 sequence (P10520 whole entry): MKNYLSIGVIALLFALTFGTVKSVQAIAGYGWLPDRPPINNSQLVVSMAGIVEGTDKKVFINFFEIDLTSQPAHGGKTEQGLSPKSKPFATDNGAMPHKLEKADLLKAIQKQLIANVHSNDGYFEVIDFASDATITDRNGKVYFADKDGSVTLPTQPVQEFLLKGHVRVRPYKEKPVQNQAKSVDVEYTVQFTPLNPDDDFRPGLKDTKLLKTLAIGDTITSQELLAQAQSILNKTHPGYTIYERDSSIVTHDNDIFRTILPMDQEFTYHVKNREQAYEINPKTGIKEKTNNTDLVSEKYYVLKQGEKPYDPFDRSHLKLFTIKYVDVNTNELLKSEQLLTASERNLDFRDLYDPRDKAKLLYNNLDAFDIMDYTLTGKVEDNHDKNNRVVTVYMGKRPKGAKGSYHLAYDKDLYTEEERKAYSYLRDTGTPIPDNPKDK

Fatty acid synthase [10] = target: T3, Fatty acid synthase; test: inhibition of human FAS-TE enzyme activity – biochemical, kinetic fluorescence intensity, dose response (AID 624326); format: functional;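 also: rate of fluorescence rise from hydrolysis of a fluorogenic O-methyl fluorescein ester substrate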
Genome polyprotein = Genome polyprotein (dengue virus type 2, UniProt P29990); test: flavivirus cap methylation enzyme inhibition – biochemical, confirmation dose response, primary screen (AID 588689); format: functional
Sequence of Genome polyprotein (P29990 2492-3391 limits assumed): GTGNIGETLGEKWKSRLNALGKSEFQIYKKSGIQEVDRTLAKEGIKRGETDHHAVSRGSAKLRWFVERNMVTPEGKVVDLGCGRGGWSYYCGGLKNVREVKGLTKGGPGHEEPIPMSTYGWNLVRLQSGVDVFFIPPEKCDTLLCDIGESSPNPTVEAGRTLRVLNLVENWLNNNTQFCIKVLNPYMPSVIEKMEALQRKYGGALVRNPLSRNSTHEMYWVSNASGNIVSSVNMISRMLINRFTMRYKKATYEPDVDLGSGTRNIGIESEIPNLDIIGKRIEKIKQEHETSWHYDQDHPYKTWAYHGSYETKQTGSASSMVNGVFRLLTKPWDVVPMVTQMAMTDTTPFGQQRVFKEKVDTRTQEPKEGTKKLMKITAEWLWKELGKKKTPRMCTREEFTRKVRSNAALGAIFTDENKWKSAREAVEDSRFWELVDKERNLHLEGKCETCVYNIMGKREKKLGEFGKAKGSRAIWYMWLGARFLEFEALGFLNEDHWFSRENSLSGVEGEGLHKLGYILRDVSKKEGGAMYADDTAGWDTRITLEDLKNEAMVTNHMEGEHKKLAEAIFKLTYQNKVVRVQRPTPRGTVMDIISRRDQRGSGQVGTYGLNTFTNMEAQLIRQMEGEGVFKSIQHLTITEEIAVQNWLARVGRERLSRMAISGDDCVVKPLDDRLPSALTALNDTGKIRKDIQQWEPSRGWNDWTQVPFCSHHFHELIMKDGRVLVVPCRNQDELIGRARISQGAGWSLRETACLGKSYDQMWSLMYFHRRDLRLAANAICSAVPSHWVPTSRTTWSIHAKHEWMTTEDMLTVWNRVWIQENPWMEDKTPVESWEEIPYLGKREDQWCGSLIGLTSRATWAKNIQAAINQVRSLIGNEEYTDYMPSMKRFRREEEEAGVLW

Streptococcus = test: GAS UMAA2166 growth inhibition – luminescence, BacTiterGlo, counter-screen for streptokinase expression inhibitor project, dose response (AID 1915); format: functional, organism-based;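 also: potency for reduction of bacterial viability or growth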
Vero = test: viability of Vero cells under compound – cytotoxicity control for flavivirus capping enzyme inhibitors (AID 588742); format: functional; settings: Chlorocebus sabaeus
[11] = target: T5, Mannose-6-phosphate isomerase (Homo sapiens, UniProt P34949); test: MPI enzyme activity inhibition – biochemical, fluorescence intensity, coupled assay, primary screen (AID 1209)
T5 sequence (P34949 whole entry): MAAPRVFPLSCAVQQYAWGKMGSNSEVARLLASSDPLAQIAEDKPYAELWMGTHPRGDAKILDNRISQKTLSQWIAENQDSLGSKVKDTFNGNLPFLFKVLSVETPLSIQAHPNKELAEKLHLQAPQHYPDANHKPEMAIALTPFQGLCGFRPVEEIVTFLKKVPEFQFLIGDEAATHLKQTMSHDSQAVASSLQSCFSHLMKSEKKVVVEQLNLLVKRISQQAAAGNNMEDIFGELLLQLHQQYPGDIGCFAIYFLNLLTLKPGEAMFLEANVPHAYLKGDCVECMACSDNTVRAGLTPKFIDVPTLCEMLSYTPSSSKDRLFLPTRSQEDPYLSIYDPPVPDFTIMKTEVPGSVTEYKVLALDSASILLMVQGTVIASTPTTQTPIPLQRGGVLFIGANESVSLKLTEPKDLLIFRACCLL

[12] = target: T6, Sentrin-specific protease 6 (Homo sapiens, UniProt Q9GZR1); test: SAR Analysis of small molecule inhibitors of Sentrin-specific protease 6 (SENP6) using a Luminescent assay. [Related pubchem assays (depositor defined):AID2582, AID2599]; format: functional
T6 sequence (Q9GZR1 whole entry): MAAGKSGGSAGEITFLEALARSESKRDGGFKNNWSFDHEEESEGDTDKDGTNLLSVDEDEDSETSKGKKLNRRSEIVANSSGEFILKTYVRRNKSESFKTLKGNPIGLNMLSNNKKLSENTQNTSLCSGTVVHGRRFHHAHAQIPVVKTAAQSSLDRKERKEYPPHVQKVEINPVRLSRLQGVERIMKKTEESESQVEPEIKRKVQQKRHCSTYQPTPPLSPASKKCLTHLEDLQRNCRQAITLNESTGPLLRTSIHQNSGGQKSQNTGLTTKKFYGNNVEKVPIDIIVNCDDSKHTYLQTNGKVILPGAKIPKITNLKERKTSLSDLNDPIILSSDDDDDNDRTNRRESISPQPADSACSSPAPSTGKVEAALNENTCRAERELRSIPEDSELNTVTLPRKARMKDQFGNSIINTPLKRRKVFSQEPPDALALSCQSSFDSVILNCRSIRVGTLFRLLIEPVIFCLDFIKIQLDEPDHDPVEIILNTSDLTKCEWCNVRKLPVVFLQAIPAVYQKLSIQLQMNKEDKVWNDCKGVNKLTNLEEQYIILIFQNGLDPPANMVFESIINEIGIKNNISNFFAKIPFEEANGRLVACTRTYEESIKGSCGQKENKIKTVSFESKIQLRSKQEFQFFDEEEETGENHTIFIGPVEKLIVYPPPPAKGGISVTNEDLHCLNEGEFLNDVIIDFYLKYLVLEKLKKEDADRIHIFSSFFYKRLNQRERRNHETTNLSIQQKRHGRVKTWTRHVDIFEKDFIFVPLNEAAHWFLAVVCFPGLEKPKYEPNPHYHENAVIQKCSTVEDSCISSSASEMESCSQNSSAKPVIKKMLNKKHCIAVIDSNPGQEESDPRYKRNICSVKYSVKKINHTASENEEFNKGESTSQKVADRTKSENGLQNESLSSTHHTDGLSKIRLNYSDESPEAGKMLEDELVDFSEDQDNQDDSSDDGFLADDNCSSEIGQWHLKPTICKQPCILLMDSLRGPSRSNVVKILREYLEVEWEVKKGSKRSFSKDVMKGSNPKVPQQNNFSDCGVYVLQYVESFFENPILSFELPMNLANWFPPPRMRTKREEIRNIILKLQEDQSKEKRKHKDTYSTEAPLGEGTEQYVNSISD

Caspase-3 [13] = target: T7, Caspase-3 (Homo sapiens, UniProt P42574); format: functional
T7 sequence (P42574 whole entry): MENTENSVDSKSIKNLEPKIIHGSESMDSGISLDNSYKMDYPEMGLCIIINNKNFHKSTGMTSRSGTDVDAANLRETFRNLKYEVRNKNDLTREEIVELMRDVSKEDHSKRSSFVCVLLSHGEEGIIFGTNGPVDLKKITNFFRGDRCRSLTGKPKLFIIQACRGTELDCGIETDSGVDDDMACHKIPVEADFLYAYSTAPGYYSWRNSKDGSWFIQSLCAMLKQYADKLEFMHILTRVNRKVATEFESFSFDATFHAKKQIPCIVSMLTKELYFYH

[14] = target: T8, Sentrin-specific protease 7 (Homo sapiens, UniProt Q9BQF6); test: inhibition of human SENP7 cleavage activity – biochemical, luminescence, SAR follow-up (AID 504497); format: functional
T8 sequence (Q9BQF6 whole entry): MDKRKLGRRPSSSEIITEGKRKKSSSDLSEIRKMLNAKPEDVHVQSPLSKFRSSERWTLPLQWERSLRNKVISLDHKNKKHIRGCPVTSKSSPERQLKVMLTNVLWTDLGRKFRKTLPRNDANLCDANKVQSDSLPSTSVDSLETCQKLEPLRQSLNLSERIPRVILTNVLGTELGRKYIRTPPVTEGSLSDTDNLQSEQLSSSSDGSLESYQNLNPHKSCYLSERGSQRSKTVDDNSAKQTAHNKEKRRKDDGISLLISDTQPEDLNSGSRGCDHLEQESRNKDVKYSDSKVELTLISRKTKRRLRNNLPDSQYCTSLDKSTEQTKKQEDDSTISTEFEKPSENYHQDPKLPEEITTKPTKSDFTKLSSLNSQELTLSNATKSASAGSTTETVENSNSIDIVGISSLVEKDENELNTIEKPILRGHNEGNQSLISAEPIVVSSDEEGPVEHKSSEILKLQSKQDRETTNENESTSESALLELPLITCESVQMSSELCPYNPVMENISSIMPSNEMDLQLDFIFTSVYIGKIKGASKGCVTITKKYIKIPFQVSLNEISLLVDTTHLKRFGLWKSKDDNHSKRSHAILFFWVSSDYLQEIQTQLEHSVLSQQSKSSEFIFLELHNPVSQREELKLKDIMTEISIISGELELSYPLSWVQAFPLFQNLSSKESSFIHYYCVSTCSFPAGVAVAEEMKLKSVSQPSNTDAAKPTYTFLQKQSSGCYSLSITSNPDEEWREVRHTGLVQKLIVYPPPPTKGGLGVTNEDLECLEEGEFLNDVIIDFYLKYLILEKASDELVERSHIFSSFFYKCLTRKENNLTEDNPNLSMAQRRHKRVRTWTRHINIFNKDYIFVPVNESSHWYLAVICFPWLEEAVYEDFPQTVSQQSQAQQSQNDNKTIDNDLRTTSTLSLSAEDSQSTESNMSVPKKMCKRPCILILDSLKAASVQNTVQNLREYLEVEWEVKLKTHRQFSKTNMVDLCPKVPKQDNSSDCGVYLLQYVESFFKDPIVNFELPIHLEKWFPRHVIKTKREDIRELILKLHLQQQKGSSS

[15] = target: T6, Sentrin-specific protease 6; format: functional
[16] = target: T9, Sentrin-specific protease 8 (Homo sapiens, UniProt Q96LD8); format: functional;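 also: luminescence read-out of SENP8 inhibition, dose-response confirmation following an ultra-high-throughput screen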
T9 sequence (Q96LD8 whole entry): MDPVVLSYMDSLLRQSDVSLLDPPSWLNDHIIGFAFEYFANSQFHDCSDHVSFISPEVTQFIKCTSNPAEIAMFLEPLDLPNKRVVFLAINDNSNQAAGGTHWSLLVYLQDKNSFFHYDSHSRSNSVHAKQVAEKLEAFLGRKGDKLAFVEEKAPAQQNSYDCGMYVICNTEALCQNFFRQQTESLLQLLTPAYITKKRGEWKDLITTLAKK

[17] = target: T8, Sentrin-specific protease 7; format: functional
[18] = target: T9, Sentrin-specific protease 8; test: inhibition of human SENP8 cleavage activity – biochemical, luminescence, SAR follow-up (AID 504501); format: functional
Caspase-3 [19] = target: T7, Caspase-3; test: SAR Analysis of small molecule inhibitors of Sentrin-specific proteases (SENPs) using a Caspase-3 Selectivity assay. [Related pubchem assays (depositor defined):AID2540, AID2599, AID434973, AID489001]; format: functional

O=[N+]([O-])c1c(NCCCO)cc(Sc2nc3ccccc3s2)c2nonc12
IC50 [1]: 2.05 µM (active) | IC50 [2]: > 80 µM (inactive) | AC50 [3]: 26.2 µM (active) | AC50 [4]: 8.01 µM (active) | AC50 [5]: 1.58 µM (active) | EC50 [6]: > 99 µM (inactive) | EC50 [7]: 2.2 µM (active) | EC50 [8]: 44.1 µM (inactive) | EC50 (Beta-galactosidase): > 40 µM (inactive) | IC50 (Fatty acid synthase [9]): 2.37 µM (active) | EC50 (Streptokinase A): 5.49 µM (active) | IC50 (Fatty acid synthase [10]): 1.95 µM (active) | IC50 (Genome polyprotein): 23 µM (active) | EC50 (Streptococcus): 3.07 µM (active) | CC50 (Vero): 26.2 µM (active) | IC50 [11]: > 50 µM (not active)

CC(=O)Nc1ccc(-c2nc3cc(Cl)ccc3o2)cc1
IC50 [12]: > 99 µM (inactive) | IC50 (Caspase-3 [13]): 54.9 µM (active) | IC50 [14]: 2.7 µM (active) | IC50 [15]: > 100 µM (inactive) | IC50 [16]: > 100 µM (inactive) | IC50 [17]: 2.77 µM (active) | IC50 [18]: > 99 µM (inactive) | IC50 (Caspase-3 [19]): 10.4 µM (active)

O=C(NN=c1c(=O)c2ccccc2c1=O)c1ccncc1
IC50 [12]: 9.3 µM (active) | IC50 [14]: 17.8 µM (active) | IC50 [18]: 33.3 µM (active) | IC50 (Caspase-3 [19]): 76.5 µM (active)
